Experimental data published in patent publication US8748415B2 (priority 2011, dated 2014).

What follows are molecules tested on recombinant NL4-3 virus (Renilla luciferase in nef, Gag P373S) (assay: HIV cell culture assay (luciferase activity in MT-2 cells infected with NLRluc recombinant virus)). Conditions: NL43, MT-2 cells infected 4-5 days with NLRluc recombinant virus, class symbol.
Assay type: cell-based
Description: HIV cell culture assay—MT-2 cells and 293T cells were obtained from the NIH AIDS Research and Reference Reagent Program. MT-2 cells were propagated in RPMI 1640 media supplemented with 10% heat inactivated fetal bovine serum, […]. The 293T cells were propagated in DMEM media supplemented with 10% heat inactivated fetal bovine serum (FBS), 100 units/ml penicillin G and 100 μg/ml streptomycin. The proviral DNA clone of NL4-3 was obtained from the NIH AIDS Research and Reference Reagent Program. A recombinant NL4-3 virus, in which a section of the nef gene from NL4-3 was replaced with the Renilla luciferase gene, was used as a reference virus. In addition, residue Gag P373 was converted to P373S. Briefly, the recombinant virus was prepared by transfection of the altered proviral clone of NL4-3. Transfections were performed in 293T cells using LipofectAMINE PLUS from Invitrogen (Carlsbad, Calif.), according to manufacturer's instruction. The virus was titered in MT-2 cells using luciferase enzyme activity as a marker. Luciferase was quantitated using the Dual Luciferase kit from Promega (Madison, Wis.), with modifications to the manufacturer's protocol. The diluted Passive Lysis solution was pre-mixed with the re-suspended Luciferase Assay Reagent and the re-suspended Stop & Glo Substrate (2:1:1 ratio). Fifty (50) μL of the mixture was added to each aspirated well on assay plates and luciferase activity was measured immediately on a Wallac TriLux (Perkin-Elmer). Antiviral activities of inhibitors toward the recombinant virus were quantified by measuring luciferase activity in cells infected for 4-5 days with NLRluc recombinants in the presence serial dilutions of the inhibitor. Table 1 is the key for the data in Table 2.

Question: With C=C(C)[C@@H]1CC[C@]2(CNCCC(=O)N3CCn4c(nnc4C(F)(F)F)C3)CC[C@]3(C)[C@H](CC[C@@H]4[C@@]5(C)CC=C(c6ccc(C(=O)O)cc6)C(C)(C)[C@@H]5CC[C@]43C)[C@@H]12 [Example 119] as the molecule, how does the EC50 read?
Answer: < 100 nM

Question: C=C(C)[C@@H]1CC[C@]2(CNC(=O)CN(C)C)CC[C@]3(C)[C@H](CC[C@@H]4[C@@]5(C)CC=C(c6ccc(C(=O)O)cc6)C(C)(C)[C@@H]5CC[C@]43C)[C@@H]12 [Example 148, 4-((1R,3aS,5aR,5bR,7aR,11aS,11bR,13aR,13bR)-3a-((2-(dimethylamino)acetamido)methyl)-5a,5b,8,8,11a-pentamethyl-1-(prop-1-en-2-yl)-2,3,3a,4,5,5a,5b,6,7,7a,8,11,11a,11b,12,13,13a,13b-octadecahydro-1H-cyclopenta[a]chrysen-9-yl)benzoic acid] was tested. Which EC50 did it give?
Answer: < 100 nM

Question: For C=C(C)[C@@H]1CC[C@]2(CNC3(C(=O)N4CCS(=O)(=O)CC4)CC3)CC[C@]3(C)[C@H](CC[C@@H]4[C@@]5(C)CC=C(c6ccc(C(=O)O)cc6)C(C)(C)[C@@H]5CC[C@]43C)[C@@H]12 [Example 116, 4-((1R,3aS,5aR,5bR,7aR,11aS,11bR,13aR,13bR)-3a-(((1-((1,1-dioxido-4-thiomorpholinyl)carbonyl)cyclopropyl)amino)methyl)-1-isopropenyl-5a,5b,8,8,11a-pentamethyl-2,3,3a,4,5,5a,5b,6,7,7a,8,11,11a,11b,12,13,13a,13b-octadecahydro-1H-cyclopenta[a]chrysen-9-yl)benzoic acid], which EC50 is on record?
Answer: < 100 nM

Question: C=C(C)[C@@H]1CC[C@]2(CNC(=O)c3cccc(C(=O)O)c3)CC[C@]3(C)[C@H](CC[C@@H]4[C@@]5(C)CC=C(c6ccc(C(=O)O)cc6)C(C)(C)[C@@H]5CC[C@]43C)[C@@H]12 [Example 143, 3-(((1R,3aS,5aR,5bR,7aR,11aS,11bR,13aR,13bR)-9-(4-carboxyphenyl)-5a,5b,8,8,11a-pentamethyl-1-(prop-1-en-2-yl)-2,3,3a,4,5,5a,5b,6,7,7a,8,11,11a,11b,12,13,13a,13b-octadecahydro-1H-cyclopenta[a]chrysen-3a-yl)methylcarbamoyl)benzoic acid] was tested. Which EC50 did it give?
Answer: < 100 nM

Question: With C=C(C)[C@@H]1CC[C@]2(CNCCCN(C)c3ccccc3)CC[C@]3(C)[C@H](CC[C@@H]4[C@@]5(C)CC=C(c6ccc(C(=O)O)cc6)C(C)(C)[C@@H]5CC[C@]43C)[C@@H]12 [Example 18, 4-((1R,3aS,5aR,5bR,7aR,11aS,11bR,13aR,13bR)-5a,5b,8,8,11a-pentamethyl-3a-((3-(methyl(phenyl)amino)propylamino)methyl)-1-(prop-1-en-2-yl)-2,3,3a,4,5,5a,5b,6,7,7a,8,11,11a,11b,12,13,13a,13b-octadecahydro-1H-cyclopenta[a]chrysen-9-yl)benzoic acid] as the molecule, how does the EC50 read?
Answer: < 100 nM

Same assay, conditions: NL43, MT-2 cells infected 4-5 days with NLRluc recombinant virus, numeric value

Question: For C=C(C)[C@@H]1CC[C@]2(CNCC(=O)N3CCC(F)(F)CC3)CC[C@]3(C)[C@H](CC[C@@H]4[C@@]5(C)CC=C(c6ccc(C(=O)O)cc6)C(C)(C)[C@@H]5CC[C@]43C)[C@@H]12 [Example 115, 4-((1R,3aS,5aR,5bR,7aR,11aS,11bR,13aR,13bR)-3a-((2-(4,4-difluoropiperidin-1-yl)-2-oxoethylamino)methyl)-5a,5b,8,8,11a-pentamethyl-1-(prop-1-en-2-yl)-2,3,3a,4,5,5a,5b,6,7,7a,8,11,11a,11b,12,13,13a,13b-octadecahydro-1H-cyclopenta[a]chrysen-9-yl)benzoic acid], which EC50 is on record?
Answer: 3 nM

Question: For C=C(C)[C@@H]1CC[C@]2(CNCC(c3cccnc3)N(C)C)CC[C@]3(C)[C@H](CC[C@@H]4[C@@]5(C)CC=C(c6ccc(C(=O)O)cc6)C(C)(C)[C@@H]5CC[C@]43C)[C@@H]12 (stereo partly drawn) [Example 10, 4-((1R,3aS,5aR,5bR,7aR,11aS,11bR,13aR,13bR)-3a-((2-(dimethylamino)-2-(pyridin-3-yl)ethylamino)methyl)-5a,5b,8,8,11a-pentamethyl-1-(prop-1-en-2-yl)-2,3,3a,4,5,5a,5b,6,7,7a,8,11,11a,11b,12,13,13a,13b-octadecahydro-1H-cyclopenta[a]chrysen-9-yl)benzoic acid], which EC50 is on record?
Answer: 4 nM
